From patent US20210113733A1, “FIBROUS WOUND DRESSING COMPRISING AN ANTISEPTIC” (Coloplast A/S, priority 2018, published 2021)

Assay: Octenidine extractable from impregnated hydrophilic polyurethane foam, no surfactant
Assay type: physicochemical
Conditions: for Release % water: 24 h extraction in water, UV 285 nm
Protocol: Discs of hydrophilic polyurethane foam were impregnated by applying a known volume of octenidine-containing solution to the surface of the foam and letting it soak into the foam matrix in a liquid:foam ratio which allowed the foam to be saturated with liquid. Afterwards, the impregnated foam was dried at RT overnight.
The dried foam disc was immersed in the extraction media for 24 h and the extracted octenidine concentration was determined by UV at 285 nm

For CCCCCCCCN=c1ccn(CCCCCCCCCCn2ccc(=NCCCCCCCC)cc2)cc1 [Octenidine, octenidine], the “Release % phosphate buffer (23 mM)” value (plain foam impregnated with 0.1 w % OCT solution, 24 h extraction) was 7%, the Release % water (plain foam impregnated with 0.1 w % OCT solution) was 5% and the Release % water (plain foam impregnated with 0.5 w % OCT solution) was 1.5%. The Release % water (plain foam impregnated with 1.0 w % OCT solution) was 1.5%.
